Reference: patent US20080261291A1 (priority 2004, published 2008)

Tested on: hairy scalp of men with premature alopecia
Conditions: 0.5% in excipient, 0.5 to 1 ml on the head scalp, one week
Protocol: It is wanted to evaluate the genin of Calocarpum, (Chrysophyllum or Lucuma) as obtained of the example 6 according to this invention, as capillary rubefacient agent for which six affected gentlemen of premature alopecia are tried, to witch are requested to subject themselves to one weeks of test, which consists on being applied from 0.5 to 1 ml of the diluted products in test in the affected area of the head scalp in the clean skin. The two men of the group #1, receives the mixture of genin of Calocarpum, in a preparation consisting on the product as obtained of the example 6, to 0.5% in an excipient. The excipient composition for 100 g is: water 20 g, propyleneglycol 25 g, sunflower oil 54.5 g. The two men of the group #2, receives the same composition of the previous excipient and resorcinol to 0.5%. The two men of the group #3, receives the before mentioned excipient alone. The following questionnaire is registered and the pertinent observations of the test are made.
Age; sex; since when they present the alopecia; duration of the applied treatment; 1.—Was the treatment irritating: a) it was not irritating, b) light, c) moderate, d) high, e) severe. 2.—Irritation type: a) hyperaemia (heat), b) inflammation, c) vesicatión (it produces blisters) 3.—keratolytic (desquamation production): a) without effect, b) light, c) moderate, d) extensive. […]

Oc1cccc(O)c1 [resorcinol]
keratolysis (desquamation production): moderate keratolysis
